# How the values were obtained:
# [1] = molecular target: T1, Alpha-2B adrenergic receptor (Homo sapiens, UniProt P18089)
# T1 sequence (P18089 whole entry): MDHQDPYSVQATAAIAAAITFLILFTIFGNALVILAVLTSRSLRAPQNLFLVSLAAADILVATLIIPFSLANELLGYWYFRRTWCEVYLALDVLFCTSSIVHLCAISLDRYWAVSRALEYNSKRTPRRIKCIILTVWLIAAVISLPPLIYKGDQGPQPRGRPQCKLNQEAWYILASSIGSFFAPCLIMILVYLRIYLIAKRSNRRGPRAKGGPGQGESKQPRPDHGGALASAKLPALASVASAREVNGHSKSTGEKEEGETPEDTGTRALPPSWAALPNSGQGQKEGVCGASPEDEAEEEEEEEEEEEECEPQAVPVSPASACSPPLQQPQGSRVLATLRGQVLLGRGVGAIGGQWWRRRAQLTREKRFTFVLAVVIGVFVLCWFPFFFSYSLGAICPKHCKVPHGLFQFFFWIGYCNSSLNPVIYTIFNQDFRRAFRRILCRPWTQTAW
# [2] = molecular target: T2, Alpha-2C adrenergic receptor (Homo sapiens, UniProt P18825); format: functional
# T2 sequence (P18825 whole entry): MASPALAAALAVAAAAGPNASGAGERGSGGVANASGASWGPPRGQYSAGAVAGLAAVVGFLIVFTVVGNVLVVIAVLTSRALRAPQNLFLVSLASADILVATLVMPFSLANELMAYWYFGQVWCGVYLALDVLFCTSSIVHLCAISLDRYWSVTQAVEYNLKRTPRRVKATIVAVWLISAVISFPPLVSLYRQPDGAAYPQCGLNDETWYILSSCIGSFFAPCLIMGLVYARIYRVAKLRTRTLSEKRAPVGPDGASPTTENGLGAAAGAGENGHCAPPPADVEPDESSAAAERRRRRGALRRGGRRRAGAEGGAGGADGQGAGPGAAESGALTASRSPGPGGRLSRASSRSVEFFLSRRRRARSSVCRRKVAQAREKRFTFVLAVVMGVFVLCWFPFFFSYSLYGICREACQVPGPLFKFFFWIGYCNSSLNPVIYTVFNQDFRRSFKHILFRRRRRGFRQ
# [3] = molecular target: Growth hormone secretagogue receptor type 1 (Homo sapiens, UniProt Q92847)
# Growth hormone secretagogue receptor type 1, sequence (Q92847 whole entry): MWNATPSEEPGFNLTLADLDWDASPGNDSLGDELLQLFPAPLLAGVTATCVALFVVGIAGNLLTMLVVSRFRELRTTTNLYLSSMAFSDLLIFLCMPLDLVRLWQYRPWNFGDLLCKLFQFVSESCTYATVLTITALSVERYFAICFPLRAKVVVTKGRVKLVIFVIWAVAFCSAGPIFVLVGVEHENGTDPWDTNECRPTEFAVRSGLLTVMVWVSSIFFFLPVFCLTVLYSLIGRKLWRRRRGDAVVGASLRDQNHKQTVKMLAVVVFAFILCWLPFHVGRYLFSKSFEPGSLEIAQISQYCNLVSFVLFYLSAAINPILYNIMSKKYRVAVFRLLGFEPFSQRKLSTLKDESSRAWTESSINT
# [4] = molecular target: Glutamate receptor ionotropic, NMDA 1 (Rattus norvegicus, UniProt P35439)
# [5] = molecular target: 5-hydroxytryptamine receptor 2B (Homo sapiens, UniProt P41595); format: functional, cell-based
# 5-hydroxytryptamine receptor 2B, sequence (P41595 whole entry): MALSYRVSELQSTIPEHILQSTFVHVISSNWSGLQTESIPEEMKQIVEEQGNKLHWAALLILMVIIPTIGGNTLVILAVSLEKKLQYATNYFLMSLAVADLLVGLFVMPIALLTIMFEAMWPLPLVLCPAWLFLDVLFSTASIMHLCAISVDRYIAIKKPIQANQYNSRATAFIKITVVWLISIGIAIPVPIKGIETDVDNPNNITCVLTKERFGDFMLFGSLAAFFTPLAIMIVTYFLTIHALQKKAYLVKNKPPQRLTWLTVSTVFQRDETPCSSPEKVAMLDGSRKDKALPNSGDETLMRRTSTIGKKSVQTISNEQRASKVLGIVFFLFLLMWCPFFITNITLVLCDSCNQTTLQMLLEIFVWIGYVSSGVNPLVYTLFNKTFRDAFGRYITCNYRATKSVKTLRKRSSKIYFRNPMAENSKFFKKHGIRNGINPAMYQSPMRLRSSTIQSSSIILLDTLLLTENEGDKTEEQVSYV
# Mu-type opioid receptor [6] = molecular target: T3, Mu-type opioid receptor (Homo sapiens, UniProt P35372); test: biochemical; format: functional
# T3 sequence (P35372 whole entry): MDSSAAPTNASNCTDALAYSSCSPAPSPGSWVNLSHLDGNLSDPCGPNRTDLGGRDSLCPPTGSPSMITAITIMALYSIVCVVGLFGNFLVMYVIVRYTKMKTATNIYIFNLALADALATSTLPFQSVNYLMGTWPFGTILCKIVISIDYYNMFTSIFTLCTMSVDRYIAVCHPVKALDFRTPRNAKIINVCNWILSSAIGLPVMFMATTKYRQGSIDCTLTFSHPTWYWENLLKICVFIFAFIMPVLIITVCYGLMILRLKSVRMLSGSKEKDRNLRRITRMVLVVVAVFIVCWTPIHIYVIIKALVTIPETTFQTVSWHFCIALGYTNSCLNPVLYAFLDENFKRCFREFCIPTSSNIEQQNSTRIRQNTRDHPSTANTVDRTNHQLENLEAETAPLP
# [7] = molecular target: 3',5'-cyclic-AMP phosphodiesterase 4D (Homo sapiens, UniProt Q08499); format: functional
# 3',5'-cyclic-AMP phosphodiesterase 4D, sequence (Q08499 whole entry): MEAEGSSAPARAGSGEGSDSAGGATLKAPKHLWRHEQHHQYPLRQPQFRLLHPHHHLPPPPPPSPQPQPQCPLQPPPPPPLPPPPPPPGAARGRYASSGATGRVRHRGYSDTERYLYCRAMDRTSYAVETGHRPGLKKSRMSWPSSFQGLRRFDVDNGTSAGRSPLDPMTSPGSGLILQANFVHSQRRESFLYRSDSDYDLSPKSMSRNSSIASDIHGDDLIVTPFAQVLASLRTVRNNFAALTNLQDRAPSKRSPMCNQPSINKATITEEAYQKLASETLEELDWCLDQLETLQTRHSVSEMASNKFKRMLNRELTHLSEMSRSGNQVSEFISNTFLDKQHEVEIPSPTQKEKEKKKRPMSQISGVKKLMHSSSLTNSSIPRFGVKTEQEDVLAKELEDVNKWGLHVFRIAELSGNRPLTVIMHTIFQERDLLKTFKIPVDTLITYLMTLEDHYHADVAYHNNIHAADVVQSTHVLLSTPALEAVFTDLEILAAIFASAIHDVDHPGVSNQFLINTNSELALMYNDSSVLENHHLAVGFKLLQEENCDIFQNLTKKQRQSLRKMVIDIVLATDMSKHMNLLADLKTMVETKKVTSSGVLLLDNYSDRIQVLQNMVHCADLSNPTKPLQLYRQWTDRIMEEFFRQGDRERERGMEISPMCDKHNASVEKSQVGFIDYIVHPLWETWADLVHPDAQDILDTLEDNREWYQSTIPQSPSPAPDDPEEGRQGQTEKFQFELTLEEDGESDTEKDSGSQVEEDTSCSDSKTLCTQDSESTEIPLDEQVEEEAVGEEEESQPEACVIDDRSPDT
# Progesterone receptor = molecular target: T4, Progesterone receptor (Homo sapiens, UniProt P06401); format: functional
# T4 sequence (P06401 whole entry): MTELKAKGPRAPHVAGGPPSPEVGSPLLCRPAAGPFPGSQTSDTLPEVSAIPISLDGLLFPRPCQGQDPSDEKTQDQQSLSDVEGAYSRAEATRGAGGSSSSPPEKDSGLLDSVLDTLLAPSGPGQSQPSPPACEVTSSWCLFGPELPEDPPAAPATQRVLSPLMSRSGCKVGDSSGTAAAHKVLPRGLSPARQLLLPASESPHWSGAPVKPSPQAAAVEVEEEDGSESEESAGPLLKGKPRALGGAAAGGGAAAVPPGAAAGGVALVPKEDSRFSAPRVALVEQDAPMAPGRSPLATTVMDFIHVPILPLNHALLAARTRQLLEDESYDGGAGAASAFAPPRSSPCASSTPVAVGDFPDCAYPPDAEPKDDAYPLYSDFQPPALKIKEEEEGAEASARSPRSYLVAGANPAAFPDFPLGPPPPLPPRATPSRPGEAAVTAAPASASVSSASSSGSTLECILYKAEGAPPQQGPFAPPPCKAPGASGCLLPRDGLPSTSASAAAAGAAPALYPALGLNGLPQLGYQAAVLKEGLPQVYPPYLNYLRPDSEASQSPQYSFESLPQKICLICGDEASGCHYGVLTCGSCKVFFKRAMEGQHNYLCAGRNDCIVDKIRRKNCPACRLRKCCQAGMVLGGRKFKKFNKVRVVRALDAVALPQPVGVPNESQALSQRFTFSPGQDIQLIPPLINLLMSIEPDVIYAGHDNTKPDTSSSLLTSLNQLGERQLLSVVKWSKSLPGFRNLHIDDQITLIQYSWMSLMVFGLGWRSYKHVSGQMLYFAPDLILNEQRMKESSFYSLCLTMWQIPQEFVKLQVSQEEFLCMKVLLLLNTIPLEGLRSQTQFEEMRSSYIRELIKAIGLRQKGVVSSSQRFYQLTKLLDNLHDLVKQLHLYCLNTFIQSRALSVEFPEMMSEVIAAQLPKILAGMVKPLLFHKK
# [8] = molecular target: Sodium-dependent noradrenaline transporter (Homo sapiens, UniProt P23975)
# Sodium-dependent noradrenaline transporter, sequence (P23975 whole entry): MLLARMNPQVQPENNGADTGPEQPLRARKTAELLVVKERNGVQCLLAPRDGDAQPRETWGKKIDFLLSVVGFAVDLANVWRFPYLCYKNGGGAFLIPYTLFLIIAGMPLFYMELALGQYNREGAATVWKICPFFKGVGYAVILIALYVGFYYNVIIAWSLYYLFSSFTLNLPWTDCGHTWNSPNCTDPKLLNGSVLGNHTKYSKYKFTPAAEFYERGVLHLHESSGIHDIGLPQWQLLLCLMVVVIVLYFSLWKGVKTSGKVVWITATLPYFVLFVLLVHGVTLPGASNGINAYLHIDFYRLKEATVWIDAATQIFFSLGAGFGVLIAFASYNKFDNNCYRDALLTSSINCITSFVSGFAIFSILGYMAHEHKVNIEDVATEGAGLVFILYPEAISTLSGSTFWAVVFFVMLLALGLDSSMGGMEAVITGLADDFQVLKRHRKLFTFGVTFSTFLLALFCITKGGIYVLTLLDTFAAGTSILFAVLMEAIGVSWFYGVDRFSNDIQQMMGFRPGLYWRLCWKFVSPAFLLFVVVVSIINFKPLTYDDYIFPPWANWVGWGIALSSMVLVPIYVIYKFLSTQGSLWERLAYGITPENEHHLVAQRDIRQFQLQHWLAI
# Mu-type opioid receptor [9] = molecular target: T3, Mu-type opioid receptor
# Histamine H3 receptor = Histamine H3 receptor (Homo sapiens, UniProt Q9Y5N1)
# Histamine H3 receptor, sequence (Q9Y5N1 whole entry): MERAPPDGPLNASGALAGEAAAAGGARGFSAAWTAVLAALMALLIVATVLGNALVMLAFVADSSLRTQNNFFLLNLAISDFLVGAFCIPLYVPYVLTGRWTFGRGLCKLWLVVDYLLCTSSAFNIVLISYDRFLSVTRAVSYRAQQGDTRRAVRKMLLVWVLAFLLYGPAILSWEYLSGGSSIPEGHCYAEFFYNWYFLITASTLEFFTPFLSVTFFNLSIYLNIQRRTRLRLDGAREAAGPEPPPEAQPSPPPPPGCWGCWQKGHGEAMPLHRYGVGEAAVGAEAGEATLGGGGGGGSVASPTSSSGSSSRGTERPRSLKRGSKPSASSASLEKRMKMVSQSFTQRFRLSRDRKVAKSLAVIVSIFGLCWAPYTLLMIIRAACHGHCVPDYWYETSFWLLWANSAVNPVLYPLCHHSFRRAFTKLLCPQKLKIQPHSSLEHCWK
# Further: assay procedure not described here.
Structure (SMILES),AC50 [1] [µM],AC50 [2] [µM],AC50 [3] [µM],AC50 [4] [µM],AC50 [5] [µM],AC50 (Mu-type opioid receptor [6]) [µM],AC50 [7] [µM],AC50 (Progesterone receptor) [µM],AC50 [8] [µM],AC50 (Mu-type opioid receptor [9]) [µM],AC50 (Histamine H3 receptor) [µM]
COc1ccc([C@@H]2CC(=O)c3c(O)cc(O)cc3O2)cc1O [HESPERETIN],> 10,> 10,> 10,> 10,> 10,> 30,30,> 10,> 10,> 30,–
CN(C)CCCN1c2ccccc2CCc2ccccc21 [IMIPRAMINE],0.32,2.1,> 30,–,5,28,> 10,–,–,8.1,> 10
CCC[C@@H]1C[C@@H](C(=O)N[C@@H]([C@H]2O[C@H](SC)[C@H](O)[C@@H](O)[C@H]2O)[C@@H](C)O)N(C)C1 [LINCOMYCIN],–,> 10,> 10,> 10,> 30,> 30,> 30,–,> 10,> 30,–
C=C1c2cccc(O)c2C(=O)C2=C(O)[C@]3(O)C(=O)C(C(N)=O)=C(O)[C@@H](N(C)C)[C@@H]3[C@@H](O)[C@H]12 [METHACYCLINE],> 10,> 10,> 30,> 10,> 10,–,> 30,> 30,> 10,> 30,–
Cc1ccccc1N1C(=O)c2cc(S(N)(=O)=O)c(Cl)cc2NC1C (stereo unspecified) [METOLAZONE],–,> 10,> 10,> 10,> 10,> 30,> 30,> 10,> 10,> 30,–
O=C(O)c1cccnc1Nc1cccc(C(F)(F)F)c1 [NIFLUMIC ACID],–,> 10,> 10,> 10,> 10,> 30,> 30,> 10,> 10,> 30,–
O=C1c2ccccc2C(=O)C1c1ccccc1 [PHENINDIONE],–,> 10,> 10,> 10,18,–,> 30,> 10,> 10,> 30,> 10
CN[C@@H](C)[C@@H](O)c1ccccc1 [PSEUDOEPHEDRINE],> 10,13,> 30,> 10,> 10,> 30,> 30,–,> 10,> 30,> 10
COC(=O)[C@H]1[C@H]2C[C@@H]3c4[nH]c5cc(OC)ccc5c4CCN3C[C@H]2C[C@@H](OC(=O)c2cc(OC)c(OC)c(OC)c2)[C@@H]1OC [RESERPINE],–,> 30,> 10,> 10,> 10,> 30,> 30,> 10,> 30,> 30,–
C[C@]12C=CC(=O)C=C1CC[C@@H]1[C@@H]2CC[C@]2(C)OC(=O)CC[C@@H]12 [TESTOLACTONE],> 10,> 10,> 10,> 10,> 30,> 30,> 30,> 10,> 10,> 30,–

# From ChEMBL document CHEMBL5291721, “A preclinical secondary pharmacology resource illuminates target-adverse drug reaction associations of marketed drugs” (Nat Commun, 2023)
